“Also recorded” adds a separate entry of the source.
Assays:
[1] = biological target: T1, bovine thymus VDR (Bos taurus, UniProt Q28037); experiment: Radioreceptor assay with bovine thymus VDR (Incstar), displacement of 3H-1α,25-(OH)2 D3; assay type: binding
T1 construct: commercially available kit of bovine thymus VDR; purchased Incstar (Stillwater, Minn.); host or cells: bovine thymus
T1 sequence (Q28037 1-426): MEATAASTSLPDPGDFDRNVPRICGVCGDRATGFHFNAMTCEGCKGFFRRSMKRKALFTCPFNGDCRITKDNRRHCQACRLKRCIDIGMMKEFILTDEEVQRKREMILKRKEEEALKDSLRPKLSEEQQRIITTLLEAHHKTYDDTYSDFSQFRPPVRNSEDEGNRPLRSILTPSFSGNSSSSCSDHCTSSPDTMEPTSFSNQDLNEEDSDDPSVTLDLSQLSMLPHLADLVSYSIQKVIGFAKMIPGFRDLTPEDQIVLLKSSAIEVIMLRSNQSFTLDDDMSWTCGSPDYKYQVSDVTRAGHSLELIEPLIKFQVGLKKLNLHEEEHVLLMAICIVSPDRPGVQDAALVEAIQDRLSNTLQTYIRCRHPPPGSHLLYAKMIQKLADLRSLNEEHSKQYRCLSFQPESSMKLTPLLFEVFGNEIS
Text: Purified 1α,24(S)-(OH)2 D2 was quantitated by photodiode array spectrophotometry and assayed in the radioreceptor assay.
The purified 1α,24(R)-(OH)2 D2 and 1α,24(S)-(OH)2 D2 epimers were quantitated by ultraviolet spectroscopy. The concentration of 1α,24(R)-(OH)2 D2 required to produce the same displacement of ^3 H-1α,25-(OH)2 D3 tracer from the receptor was 20 to 30 times that required for 1α,24(S)-(OH)2 D2, as shown in FIG. 4.

[2] = Preventive treatment of bone mass loss in postmenopausal osteoporotic women; assay type: in vivo, human; settings: at or above 1.0 μg/day, 24 to 36 months
Description: A clinical study is conducted with postmenopausal osteoporotic out-patientshaving ages between 55 and 75 years. The study involves up to 120 patients randomly divided into three treatment groups and continues for 24 to 36 months. Two of the treatment groups receive constant dosages of 1α,24(S)-dihydroxy vitamin D2 (u.i.d.; two different dose levels at or above 1.0 μg/day) and the other group receives a matching placebo. All patients maintain a normal intake of dietary calcium (500 to 800 mg/day) and refrain from using calcium supplements. Efficacy is evaluated by pre- and post-treatment comparisons of the patient groups with regard to (a) total body calcium retention, and (b) radial and spinal bone mineral density as determined by dual-photon absorptiometry (DPA) or dual-energy x-ray absorptiometry (DEXA). Safety is evaluated by comparisons of urinary hydroxyproline excretion, serum and urine calcium levels, creatinine. clearance, blood urea nitrogen, and other routine determinations.

[3] = Prophylaxis of postmenopausal bone loss in healthy postmenopausal women; assay type: in vivo, human; settings: at or above 1.0 μg/day
Description: A clinical study is conducted with healthy postmenopausal women having ages between 55 and 60 years. The study involves up to 80 patients randomly divided into two treatment groups, and continues for 24 to 36 months. One treatment group receives a constant dosage of 1α,24(S)-dihydroxy vitamin D2 (u.i.d.; a dose level at or above 1.0 μg/day) and the other receives a matching placebo. The study is conducted as indicated in Example 2 above.

[4] = Dermatological testing, topical treatment of dermatitis; assay type: in vivo, human; settings: ointment 10 μg per gram, twice daily, four to six weeks
Description: Compositions containing 1α,24(S)-dihydroxy vitamin D2 are evaluated for therapeutic efficacy of the composition in the topical treatment of dermatitis (contact and ectopic). The composition evaluated is an ointment containing 10 μg of 1α,24-dihydroxy vitamin D2 per gram of ointment in a petrolatum-almond oil base. […] The patients are treated in an out-patient clinic. They are instructed to use the preparation two times a day.
The ointment is as far as possible applied to a single lesion, or to an area of the disease. The ointment and its container are weighed before the treatment starts and returned with any unused contents for reweighing at the end of the treatment.
The area of the lesion treated is estimated and recorded, and the lesion is photographed as required, together with suitable "control" lesions. The latter are preferably lesions of similar size and stage of development, either in the vicinity of the treated lesion or symmetrically contralateral. Relevant details of the photographic procedure are recorded so as to be reproduced when the lesions are next photographed (distance, aperture, angle, background, etc.). The ointment is applied twice daily and preferably left uncovered. The "control" lesions are left untreated, but if this is not possible, the treatment used on them is noted. […]

[5] = test system: Human keratinocytes; experiment: Epidermal cell differentiation and proliferation testing; assay type: cell-based; settings: 0.05 to 5 μg/ml
Description: Human keratinocytes are cultured according to known modifications of the system originally described by Rheinwald and Green (Cell, vol. 6, p. 331 (1975)). The 1α,24(S)-dihydroxy vitamin D2, dissolved in ethanol, is added to cells to yield a variety of concentrations between 0.05 and 5 μg/ml with the ethanol concentration not to exceed 0.5% v/v. Control cultures are supplemented with ethanol at a final concentration of 0.5% v/v.
Differentiation and proliferation of epidermal cells in culture is examined by:
1. quantitation of cornified envelopes;
2. quantitation of cell density of cells attached to disks;
3. monitoring transglutaminase activity; or
4. monitoring DNA synthesis by incorporation of ^3 H-thymidine.

SMILES: C=C1/C(=C\C=C2/CCC[C@]3(C)[C@@H]([C@H](C)/C=C/[C@@](C)(O)C(C)C)CC[C@@H]23)C[C@@H](O)C[C@@H]1O [1α,24(S)-(OH)2 D2, 1α,24(S)-dihydroxy Vitamin D2]
- Affinity for VDR relative to 1α,25-(OH)2 D3 [1]: two-fold less competitive; also recorded: two-fold lower affinity
- Incidence of hypercalcemia or hypercalciuria [2]: insignificant incidence
- Total body calcium, radial and spinal bone densities versus placebo [2]: significantly higher
- Losses in total body calcium, radial or spinal bone densities versus baseline ([3]; 24 to 36 months): reduced losses
- Monitored safety parameters ([3]; long-term): confirm the safety
- Incidence of hypercalcemia [4]: insignificant incidence of hypercalcemia
- Lesion severity scores (erythema, scaling, thickness, rated 0 to 3) [4]: lower scores than the control lesions
- Cell density of attached cells versus control cultures [5]: fewer attached cells
- Cornified envelopes versus control cultures [5]: more cornified envelopes
- DNA synthesis (3H-thymidine incorporation) versus control cultures [5]: lower DNA synthesis
- Transglutaminase activity versus control cultures [5]: higher transglutaminase activity

Source: patent US6143910A, “Methods for preparation and use of 1α, 24(S) -dihydroxy vitamin D2” (priority 1998, dated 2000)
